Measurements published in ChEMBL document CHEMBL5120927, “LEGO-Lipophosphonoxins: A Novel Approach in Designing Membrane Targeting Antimicrobials” (J Med Chem, 2022).
The source made the active and inactive calls. No cut-off for these calls is given here.

Experiments:
Staphylococcus aureus [1] = assay: Antibacterial activity against Staphylococcus aureus ATCC 29213 = CCM 4223 assessed as inhibition of bacterial growth incubated for 24 hrs by microdilution assay; type: functional
Staphylococcus aureus [2] = assay: Antibacterial activity against Staphylococcus aureus ATCC 29213 = CCM 4223 assessed as inhibition of bacterial growth incubated for 24 hrs in presence of BSA by microdilution assay; type: functional
Escherichia coli [3] = assay: Antibacterial activity against Escherichia coli ATCC 25922 = CCM 3954 assessed as inhibition of bacterial growth incubated for 24 hrs in presence of BSA by microdilution assay; type: functional
[4] = Hemolytic activity in human RBC assessed as haemoglobin release measured after 3 hr; type: toxicity, cell-based, Erythrocyte; conditions: red blood cells (erythrocytes)
[5] = Gradient chromatographic hydrophobicity index of the compound at pH 3.7 by HPLC analysis; type: ADME
Staphylococcus aureus [6] = assay: Antibacterial activity against methicillin resistant Staphylococcus aureus 4591/A assessed as reduction in microbial growth incubated for 24 hrs by microdilution assay; type: functional
Escherichia coli [7] = assay: Antibacterial activity against multidrug-resistant Escherichia coli CE5556 expressing CTX-M-15 assessed as reduction in microbial growth incubated for 24 hrs by microdilution assay; type: functional
Enterococcus faecium = assay: Antibacterial activity against vancomycin resistant Enterococcus faecium 419/ANA assessed as reduction in microbial growth incubated for 24 hrs by microdilution assay; type: functional
Pseudomonas aeruginosa [8] = assay: Antibacterial activity against multidrug-resistant Pseudomonas aeruginosa assessed as reduction in microbial growth incubated for 24 hrs by microdilution assay; type: functional
Staphylococcus aureus [9] = assay: Antibacterial activity against wild type Staphylococcus aureus 4557/A assessed as reduction in microbial growth incubated for 24 hrs by microdilution assay; type: functional
Staphylococcus aureus [10] = assay: Antibacterial activity against […] Staphylococcus aureus 4463/A assessed as reduction in microbial growth incubated for 24 hrs by microdilution assay; type: functional
Staphylococcus aureus [11] = assay: Antibacterial activity against wild type Staphylococcus aureus 4904/C assessed as reduction in microbial growth incubated for 24 hrs by microdilution assay; type: functional
Staphylococcus aureus [12] = assay: Antibacterial activity against wild type Staphylococcus aureus 4883/C assessed as reduction in microbial growth incubated for 24 hrs by microdilution assay; type: functional
Staphylococcus aureus [13] = assay: Antibacterial activity against […] Staphylococcus aureus 4460/A assessed as reduction in microbial growth incubated for 24 hrs by microdilution assay; type: functional
Staphylococcus aureus [14] = assay: Antibacterial activity against wild type Staphylococcus aureus 4482/A assessed as reduction in microbial growth incubated for 24 hrs by microdilution assay; type: functional
Staphylococcus aureus [15] = assay: Antibacterial activity against wild type Staphylococcus aureus 4566/A assessed as reduction in microbial growth incubated for 24 hrs by microdilution assay; type: functional
Staphylococcus aureus [16] = assay: Antibacterial activity against wild type Staphylococcus aureus 4504/A assessed as reduction in microbial growth incubated for 24 hrs by microdilution assay; type: functional
Staphylococcus aureus [17] = assay: Antibacterial activity against wild type Staphylococcus aureus 4740/B assessed as reduction in microbial growth incubated for 24 hrs by microdilution assay; type: functional
Staphylococcus aureus [18] = assay: Antibacterial activity against wild type Staphylococcus aureus 4717/B assessed as reduction in microbial growth incubated for 24 hrs by microdilution assay; type: functional
Staphylococcus aureus [19] = assay: Antibacterial activity against […] Staphylococcus aureus 4461/A assessed as reduction in microbial growth incubated for 24 hrs by microdilution assay; type: functional
Staphylococcus aureus [20] = assay: Antibacterial activity against wild type Staphylococcus aureus 4679/B assessed as reduction in microbial growth incubated for 24 hrs by microdilution assay; type: functional
Staphylococcus aureus [21] = assay: Antibacterial activity against wild type Staphylococcus aureus 4502/A assessed as reduction in microbial growth incubated for 24 hrs by microdilution assay; type: functional
Staphylococcus aureus [22] = assay: Antibacterial activity against wild type Staphylococcus aureus 4515/A assessed as reduction in microbial growth incubated for 24 hrs by microdilution assay; type: functional
Staphylococcus aureus [23] = assay: Antibacterial activity against wild type Staphylococcus aureus 5079/C assessed as reduction in microbial growth incubated for 24 hrs by microdilution assay; type: functional
Staphylococcus aureus [24] = assay: Antibacterial activity against wild type Staphylococcus aureus 4788/B assessed as reduction in microbial growth incubated for 24 hrs by microdilution assay; type: functional
Staphylococcus aureus [25] = assay: Antibacterial activity against wild type Staphylococcus aureus 78/CF assessed as reduction in microbial growth incubated for 24 hrs by microdilution assay; type: functional
Staphylococcus aureus [26] = assay: Antibacterial activity against wild type Staphylococcus aureus 77/CF assessed as reduction in microbial growth incubated for 24 hrs by microdilution assay; type: functional
Staphylococcus aureus [27] = assay: Antibacterial activity against wild type Staphylococcus aureus 4561/A assessed as reduction in microbial growth incubated for 24 hrs by microdilution assay; type: functional
Staphylococcus aureus [28] = assay: Antibacterial activity against wild type Staphylococcus aureus 4968/C assessed as reduction in microbial growth incubated for 24 hrs by microdilution assay; type: functional
Staphylococcus aureus [29] = assay: Bactericidal activity against Staphylococcus aureus CCM 4223 assessed as reduction in viable cell count measured after 24 hrs by Time kill assay; type: functional, organism-based; conditions: DDE = dose-dependent effect
Pseudomonas aeruginosa [30] = assay: Antibacterial activity against Pseudomonas aeruginosa CCM 3955 persisters assessed as reduction in bacterial cell count at 1 to 10 times MIC incubated for 3 hrs by cell counting method; type: functional, organism-based
Escherichia coli [31] = assay: Antibacterial activity against Escherichia coli CCM 3954 persisters assessed as reduction in bacterial cell count at 1 to 10 times MICincubated for 3 hrs by cell counting method; type: functional, organism-based
Pseudomonas aeruginosa [32] = assay: Antibacterial activity against Pseudomonas aeruginosa assessed as reduction in microbial growth measured after 20 cycles by microdilution assay; type: functional; conditions: time 24 hrs
Cell membrane [33] = assay: Induction of cell envelope damage in Staphylococcus aureus assessed as loss of cytoplasmic content at 8 mg/L measured after 8 hrs by scanning electron microscope analysis; type: subcellular
Cell membrane [34] = assay: Induction of plasma membrane depolarization in Escherichia coli CCM 3954 assessed as increase in fluorescence intensity at 2.5 mg/L measured after 80 seconds by DiSC3-5 dye based spectrofluorometer method; type: cell membranes; conditions: time 80.0 sec
Cell membrane [35] = assay: Induction of membrane permeabilization in Escherichia coli CCM 3954 assessed as propidium iodide influx measured after 80 mins by spectrofluorometer method; conditions: dose 2.5-5 mg/L, DDE = dose-dependent effect
Cell membrane [36] = assay: Induction of plasma membrane depolarization in Staphylococcus aureus assessed as formation of fluctuating unstable pores at 2.5 mg/L; type: cell membranes
Lipid bilayer = assay: Induction of membrane disruption of bacterial inner membrane mimic DOPE/DOPG (2:1) large unilamellar vesicles assessed as carboxyfluorescein leakage at 2.5 mg/L measured after 90 mins by spectrofluorometer analysis
[37] = Cytotoxicity against human HepG2 cells assessed as reduction in cell viability; type: toxicity, cell-based
[38] = Toxicity in human epidermis model assessed as skin irritation incubated for 42 hrs; type: tissue-based
[39] = Toxicity in human cornea epidermis model assessed as eye irritation incubated for 42 hrs; type: tissue-based
[40] = Toxicity in rabbit assessed as skin irritation at 100 to 200 mg/L after administration bandaged for 4 hrs and measured after 1 to 72 hrs of contact time; design: species or system Oryctolagus cuniculus; conditions: in vivo, topical_or_ocular, dose lower 100 mg/L, time lower 1 hrs, dose upper 200 mg/L, time upper 76 hrs
Staphylococcus aureus [41] = assay: microbe, parasite or virus in culture; conditions: 4862/C, 24 h
Description: Antibacterial activity against wild type Staphylococcus aureus 4862/C assessed as reduction in microbial growth incubated for 24 hrs by microdilution assay

Staphylococcus aureus [42] = assay: microbe, parasite or virus in culture; conditions: 5017/C, 24 h
Description: Antibacterial activity against wild type Staphylococcus aureus 5017/C assessed as reduction in microbial growth incubated for 24 hrs by microdilution assay

## CCCCCCCCOP(=O)(CCN(CCCN)CCCN)OCCCCCCOP(=O)(CCN(CCCN)CCCN)OCCCCCCCC.Cl.Cl.Cl.Cl.Cl.Cl (centres undefined)
Staphylococcus aureus [1]
  MIC: 0.5 mg/L
Staphylococcus aureus [2]
  MIC: 1 mg/L
Escherichia coli [3]
  MIC: 0.5 mg/L
[4]
  HC50 at 3 h: 162 µg/mL
[5]
  CHI: 36.9
Staphylococcus aureus [6]
  MIC: 1 mg/L
Escherichia coli [7]
  MIC: 1 mg/L
Enterococcus faecium
  MIC: 8 mg/L
Pseudomonas aeruginosa [8]
  MIC: 2 mg/L
Staphylococcus aureus [9]
  MIC: 0.5 mg/L
Staphylococcus aureus [10]
  MIC: 1 mg/L
Staphylococcus aureus [11]
  MIC: 0.5 mg/L
Staphylococcus aureus [12]
  MIC: 1 mg/L
Staphylococcus aureus [13]
  MIC: 1 mg/L
Staphylococcus aureus [14]
  MIC: 0.5 mg/L
Staphylococcus aureus [15]
  MIC: 0.5 mg/L
Staphylococcus aureus [16]
  MIC: 0.5 mg/L
Staphylococcus aureus [17]
  MIC: 0.5 mg/L
Staphylococcus aureus [18]
  MIC: 0.5 mg/L
Staphylococcus aureus [19]
  MIC: 0.5 mg/L
Staphylococcus aureus [20]
  MIC: 0.5 mg/L
Staphylococcus aureus [21]
  MIC: 1 mg/L
Staphylococcus aureus [22]
  MIC: 1 mg/L
Staphylococcus aureus [23]
  MIC: 0.5 mg/L
Staphylococcus aureus [24]
  MIC: 0.5 mg/L
Staphylococcus aureus [25]
  MIC: 1 mg/L
Staphylococcus aureus [26]
  MIC: 0.5 mg/L
Staphylococcus aureus [27]
  MIC: 0.5 mg/L
Staphylococcus aureus [28]
  MIC: 1 mg/L
Staphylococcus aureus [29]
  Activity: Dde
Pseudomonas aeruginosa [30]
  Activity: Active
Escherichia coli [31]
  Activity: Active
Pseudomonas aeruginosa [32]
  fold change (FC): 32
Cell membrane [33]
  Activity: Active
Cell membrane [34]
  Activity: Active
Cell membrane [35]
  Activity: Dde
Cell membrane [36]
  Activity: Active
Lipid bilayer
  Activity: Active
[37]
  CC50: 33.1 µM
[38]
  Activity: Non-Toxic
[39]
  Activity: Non-Toxic
[40]
  Activity: Non-Toxic
Staphylococcus aureus [41]
  MIC: 0.5 mg/L
Staphylococcus aureus [42]
  MIC: 0.5 mg/L
